Test results reported in patent publication US20030199424A1, “Method of treatment and/or prophylaxis” (priority 2002, published 2003).
Entries after “also recorded” stand apart in the source; their conditions may differ. Where two headings read alike, the source gives them in different places.

Assays:
non-diabetic rats [1] = details: control non-diabetic rats; previously determined by Saini (2000); cited from earlier work
non-diabetic rats [2] = assay: Opioid-mediated antinociception (Von Frey, % MPE) in non-diabetic control rats; assay type: in vivo, rat; details: for ED50: Rattus norvegicus
Experimental: A second group of STZ-diabetic rats received vehicle (DMSO:water 10:90) by oral gavage (protocol-control rats). In the third group, weight-matched, naive, non-diabetic control rats (non-diabetic candesartan control rats) were also treated with candesartan for one wk prior to opioid antinociceptive testing to determine any intrinsic effects of candesartan on baseline pain scores and on opioid-mediated antinociception.
The statistical significance criterion was p<0.05.

STZ-diabetic rats [3] = assay: Opioid-mediated antinociception (Von Frey, % MPE) in STZ-diabetic rats; details: for ED50: Rattus norvegicus; for timing of the peak antinociceptive effect: morphine 6.1 mg/kg s.c.; for time to reach peak levels of antinociception: s.c. morphine, high-dose oral candesartan-treated STZ-diabetic rats
Experimental: In all cases, opioids were administered by a single s.c. injection (100 μL) into the dorsal region at the base of the neck whilst under light CO2/O2 (50:50%) anaesthesia using a 250 μL Hamilton syringe. […] By contrast, the opioid-naïve, weight-matched, non-diabetic candesartan control rats were given high-dose oral candesartan (2 mg/kg/day) for 7 days before opioid testing was initiated.
Immediately prior to administration of s.c. bolus doses of either opioid, baseline paw withdrawal thresholds were quantified using VFFs in an identical manner to the weekly baseline Von Frey monitoring described above. Following s.c. opioid administration, VFF assessments were performed at the following post-dosing times: 15, 30, 45, 60, 90, 120 and 180 min.
The VFF scores for individual rats were converted to the Percentage of the Maximum Possible Antinociceptive Effect (% MPE), according the following formula (Brady & Holtzmann, 1982): [formula]
(§1) The mean (±SEM) percentage maximum AUC (% Max AUC) was calculated according to the following formula: [formula]
ED50 estimation was facilitated by inclusion of the theoretical maximum and minimum % Max AUC values. The Mann-Whitney test was used to compare %MPE AUC ED50 values between treatment groups. The statistical significance criterion was p<0.05.

STZ-diabetic rats [4] = details: cited from earlier work
CYP2D6 = biological target: T1, CYP2D6 (Homo sapiens, UniProt P10635); details: humans, CYP2D6-mediated; cited from earlier work
T1 construct: low extent of CYP2D6-mediated O-demethylation of oxycodone to oxymorphone in humans; host or cells: human subjects (in vivo metabolism)

STZ-diabetic rats [5] = assay: Reversal protocol: AT1 antagonist from 12 wks post-STZ, morphine antinociception; details: oral candesartan 2 mg/kg/day for 4 wks commencing 12 wks post-STZ; tested at 16 wks post-STZ
Experimental: STZ-diabetic rats (n=18) were allocated to one of three experimental groups. Groups one and two received once-daily oral administration of antihypertensive doses of one of the AT1-antagonists, viz candesartan (2.0 mg/kg/day)or losartan (20 mg/kg/day), commencing at 12 weeks post-STZ administration (day 0). The third group (control STZ-diabetic rats) received no treatment.
as §1
The Mann-Whitney test was used to compare %MAX AUC values between treatment groups. The statistical significance criterion was p<0.05.

[6] = Body weight, metabolic signs and general health of STZ-diabetic rats; assay type: in vivo, rat; details: 24 wks post-STZ rats, cessation of chronic candesartan 2.0 mg/kg/day
Description: Induction of STZ-diabetes produced an initial ≈5-10% reduction in (mean±SEM) body weight from 233 (±1.99) g pre-STZ administration to 218 (±3.28) g at 4 wks post-STZ, followed by a gradual return to the pre-study weight over the ensuing 6-mth study period (FIG. 1).
One rat died 5 wks after the cessation of candesartan therapy.

STZ-diabetic rats [7] = assay: Von Frey assessment of tactile allodynia (paw withdrawal threshold); assay type: in vivo, rat
Experimental: Candesartan treatment was initiated after STZ administration (day 0) but prior to the onset of diabetes. Specifically, candesartan-treated rats received this drug via once-daily oral gavage in one of two dosages: viz a high-dose (2 mg/kg/day) or a low dose (0.5 mg/kg/day). The 2 mg/kg/day dose was chosen on the basis that it is an anti-hypertensive dose both in rats with perfused Ang II-induced hypertension and also in the spontaneously hypertensive rat (SHR) (Nishikawa et al., 1994, Blood Press, Suppl 5: 7-14). The low-dose ([…]) was included to investigate whether a sub-therapeutic dose (in terms of anti-hypertensive activity) of candesartan was efficacious for the treatment of PDN. Once initiated, oral once-daily candesartan was administered every day for 24 wks.
Tactile allodynia, the defining symptom of PDN, manifests as a hypersensitive response to non-noxious stimuli such as touch or light pressure, and was quantified using Von Frey filaments (VFFs). […] However, indirect methods have a questionable correlation with symptomatic severity (Malik et al., 1998, supra; Malik et al., 2001, supra). Therefore direct quantification of symptom severity using VFF assessment was used to obtain clinically relevant end points.
For each antinociceptive testing session, rats were placed in wire mesh metabolic cages (20 cm×20 cm×20 cm) and allowed to acclimatise to the test environment for approximately 10-15 min prior to the commencement of experiments. Calibrated VFFs, delivering a force in the range 2-20 g, were then applied to the plantar surface of the hind-paw to determine the paw withdrawal thresholds defined as the minimum force necessary to elicit a brisk foot withdrawal reflex. Commencing with the VFF delivering the lowest mechanical force, the filament was applied to the plantar surface of the footpad until buckling of the filament was observed. Absence of a response after approximately 3 s prompted application of the next VFF of increasing force to the footpad.
The onset and progression of the development of tactile allodynia in all STZ-diabetic rats were quantified by once weekly VFF paw withdrawal testing. Specifically for each rat, three separate assessments of paw withdrawal thresholds were undertaken, each approximately 5 min apart.

[8] = oxycodone 2.0 mg/kg s.c., candesartan (0.5 mg/kg/day) treated STZ-diabetic rats, 12 wks post-STZ
[9] = oxycodone 2.0 mg/kg s.c., candesartan (0.5 mg/kg/day) treated STZ-diabetic rats, 21 wks post-STZ
[10] = oxycodone 2.0 mg/kg s.c., candesartan (0.5 mg/kg/day) treated STZ-diabetic rats, 24 wk post-STZ
[11] = oxycodone 2.0 mg/kg s.c., control STZ-diabetic rats, 9 wks post-STZ
[12] = oxycodone 2.0 mg/kg s.c., control STZ-diabetic rats, 12 wks post-STZ
[13] = oxycodone […] s.c., candesartan (0.5 mg/kg/day) treated STZ-diabetic rats, 3 wks post-STZ
[14] = oxycodone […] s.c., candesartan (0.5 mg/kg/day) treated STZ-diabetic rats, 9 wks post-STZ
[15] = oral candesartan 0.5 mg/kg/day, by 22 wks post-STZ
[16] = oral candesartan 2 mg/kg/day once daily, 24 wk post-STZ study period, relative to non-diabetic control rats

T1 sequence (P10635 whole entry): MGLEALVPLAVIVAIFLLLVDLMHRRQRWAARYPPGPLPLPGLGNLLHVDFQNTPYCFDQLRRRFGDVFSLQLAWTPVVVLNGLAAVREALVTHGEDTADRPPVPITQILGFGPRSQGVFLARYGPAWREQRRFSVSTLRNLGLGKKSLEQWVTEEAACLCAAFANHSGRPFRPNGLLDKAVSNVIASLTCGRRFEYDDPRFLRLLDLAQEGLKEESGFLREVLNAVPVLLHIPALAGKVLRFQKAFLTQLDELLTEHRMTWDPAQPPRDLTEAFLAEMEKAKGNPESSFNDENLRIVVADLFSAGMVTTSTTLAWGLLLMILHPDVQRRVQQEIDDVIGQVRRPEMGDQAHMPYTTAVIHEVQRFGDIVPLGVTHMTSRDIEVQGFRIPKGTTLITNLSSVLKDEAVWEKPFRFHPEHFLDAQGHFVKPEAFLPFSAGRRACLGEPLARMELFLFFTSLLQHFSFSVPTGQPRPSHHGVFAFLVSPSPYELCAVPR

Compound: CN1CC[C@]23c4c5ccc(O)c4O[C@H]2[C@@H](O)C=C[C@H]3[C@H]1C5 [morphine]
- ED50 of s.c. morphine (single bolus dose) (non-diabetic rats [1]): ~2.4 mg/kg
- ED50 (non-diabetic rats [2]; read-out: ED50 of s.c. morphine, non-diabetic rats on high-dose oral candesartan 2.0 mg/kg/day): 2.3 ± 0.3 mg/kg
- ED50 (non-diabetic rats [2]; sc, read-out: mean (±SEM) ED50 of s.c. morphine, control untreated non-diabetic rats): 2.9 mg/kg
- time to achieve the peak antinociceptive effect (non-diabetic rats [2]; morphine 2.4 mg/kg s.c., control non-diabetic rats): 45 min
- ED50 (STZ-diabetic rats [3]; 504 h, read-out: mean (±SEM) ED50 of s.c. morphine): 2.5 mg/kg
- ED50 (STZ-diabetic rats [3]; 1512 h, read-out: mean (±SEM) ED50 of s.c. morphine): 2.3 mg/kg
- ED50 (STZ-diabetic rats [3]; 2016 h, read-out: mean (±SEM) ED50 of s.c. morphine): 2.1 mg/kg
- ED50 (STZ-diabetic rats [3]; 4032 h, read-out: mean (±SEM) ED50 of s.c. morphine): 2.4 mg/kg
- antinociceptive response evoked by morphine (STZ-diabetic rats [3]; control STZ-diabetic rats of the present studies, 12 wks post-STZ and beyond): marked decrease
- time to achieve the peak antinociceptive effect (STZ-diabetic rats [3]; morphine 2.4 mg/kg s.c., STZ-diabetic rats 24 wks post-STZ, oral candesartan 2.0 mg/kg/day): 60 min
- timing of the peak antinociceptive effect (STZ-diabetic rats [3]; control STZ-diabetic rats, 3 wks post-STZ): approximately 45 min
- timing of the peak antinociceptive effect (STZ-diabetic rats [3]; control STZ-diabetic rats, 9 wks post-STZ): 60 min
- time to reach peak levels of antinociception (STZ-diabetic rats [3]; 3 wks post-STZ): 45 min
- time to reach peak levels of antinociception (STZ-diabetic rats [3]; beyond 12 wks post-STZ): 60 min
- antinociceptive efficacy (STZ-diabetic rats [4]; s.c. morphine, control STZ-diabetic rats by 12 wks post-STZ (Smith et al., 2001)): completely abolished
- ED50 morphine dose (STZ-diabetic rats [4]; s.c., STZ-diabetic rats at 3 and 9 wks post-STZ, previously determined by Smith et al. (2001)): 6.1 mg/kg

Compound: COc1ccc2c3c1O[C@H]1C(=O)CC[C@@]4(O)[C@@H](C2)N(C)CC[C@]314 [oxycodone]
- ED50 (non-diabetic rats [2]; sc, control untreated non-diabetic rats, read-out: mean (±SEM) ED50 of s.c. oxycodone): 1.2 mg/kg
- ED50 (non-diabetic rats [2]; non-diabetic control rats on high-dose oral candesartan 2.0 mg/kg/day, read-out: ED50 of s.c. oxycodone): 1.1 mg/kg
- Mean (±SEM) % MPE AUC (non-diabetic rats [2]; oxycodone […] s.c., candesartan (2.0 mg/kg/day) treated non-diabetic rats): 155 (±8.5) % MPE.h
- ED50 (STZ-diabetic rats [3]; 504 h, read-out: mean (±SEM) ED50 of s.c. oxycodone): 1.4 mg/kg
- ED50 (STZ-diabetic rats [3]; 1512 h, read-out: mean (±SEM) ED50 of s.c. oxycodone): 1.3 mg/kg
- ED50 (STZ-diabetic rats [3]; 4032 h, read-out: mean (±SEM) ED50 of s.c. oxycodone): 1.1 mg/kg
- ED50 (STZ-diabetic rats [3]; sc, 504 h, read-out: approximate ED50 oxycodone dose): ~1.5 mg/kg
- ED50 (STZ-diabetic rats [3]; sc, 2016 h, read-out: approximate ED50 oxycodone dose): ~2 mg/kg
- ED50 (STZ-diabetic rats [3]; sc, 4032 h, read-out: approximate ED50 oxycodone dose): ~3.2 mg/kg
- Mean (±SEM) % MPE AUC (STZ-diabetic rats [3]; [8]): 116 (±8.2) % MPE.h
- Mean (±SEM) dose normalised % MPE AUC (STZ-diabetic rats [3]; [8]): 67.70 (±4.111) % MPE AUC.h.kg.mg^−1
- Mean (±SEM) % MPE AUC (STZ-diabetic rats [3]; [9]): 171 (±8.3) % MPE.h
- Mean (±SEM) dose normalised % MPE AUC (STZ-diabetic rats [3]; [9]): 85.34 (±4.134) % MPE AUC.h.kg.mg^−1
- Mean (±SEM) % MPE AUC (STZ-diabetic rats [3]; [10]): 145 (±13.0) % MPE.h
- Mean (±SEM) dose normalised % MPE AUC (STZ-diabetic rats [3]; [10]): 72.45 (±6.527) % MPE AUC.h.kg.mg^−1
- Mean (±SEM) % MPE AUC (STZ-diabetic rats [3]; [11]): 162 (±3.2) % MPE.h
- Mean (±SEM) dose normalised % MPE AUC (STZ-diabetic rats [3]; [11]): 80.8 (±1.6) % MPE AUC.h.kg.mg^−1
- Mean (±SEM) % MPE AUC (STZ-diabetic rats [3]; [12]): 168 (±5.2) % MPE.h
- Mean (±SEM) dose normalised % MPE AUC (STZ-diabetic rats [3]; [12]): 84.2 (±2.6) % MPE AUC.h.kg.mg^−1
- Mean (±SEM) % MPE AUC (STZ-diabetic rats [3]; oxycodone 2.2** mg/kg s.c., candesartan (2.0 mg/kg/day) treated STZ-diabetic rats, 12 wks post-STZ): 158 (±6.9) % MPE.h
- Mean (±SEM) % MPE AUC (STZ-diabetic rats [3]; oxycodone […] s.c., STZ-diabetic rats, 4 wks candesartan (2.0 mg/kg/day) re-initiation): 157 (±8.5) % MPE.h
- Mean (±SEM) % MPE AUC (STZ-diabetic rats [3]; [13]): 131 (±7.9) % MPE.h
- Mean (±SEM) dose normalised % MPE AUC (STZ-diabetic rats [3]; [13]): 109.5 (±6.549) % MPE AUC.h.kg.mg^−1
- Mean (±SEM) % MPE AUC (STZ-diabetic rats [3]; [14]): 122 (±9.1) % MPE.h
- Mean (±SEM) dose normalised % MPE AUC (STZ-diabetic rats [3]; [14]): 102.1 (±7.611) % MPE AUC.h.kg.mg^−1
- decrease in antinociceptive response (%MPE AUC) versus non-diabetic protocol control rats (STZ-diabetic rats [3]; oxycodone […] s.c., candesartan (2.0 mg/kg/day) STZ-diabetic rats, 3 wks post-STZ): ≈ 20%
- Mean (±SEM) % MPE AUC (STZ-diabetic rats [3]; oxycodone […] s.c., candesartan (2.0 mg/kg/day) treated STZ-diabetic rats, 3 wks post-STZ): 120 (±8.9) % MPE.h
- Mean (±SEM) % MPE AUC (STZ-diabetic rats [3]; oxycodone […] s.c., candesartan (2.0 mg/kg/day) treated STZ-diabetic rats, 9 wks post-STZ): 136 (±13.3) % MPE.h
- Mean (±SEM) dose normalised % MPE AUC (STZ-diabetic rats [3]; oxycodone […] s.c., control STZ-diabetic rats, 3 wks post-STZ): 115.5 (±3.1) % MPE AUC.h.kg.mg^−1
- Mean (±SEM) dose normalised % MPE AUC (STZ-diabetic rats [3]; oxycodone […] s.c., control STZ-diabetic rats, 24 wks post-STZ): 44.1 (±2.4) % MPE AUC.h.kg.mg^−1
- decrease in oxycodone potency versus non-diabetic protocol control rats (STZ-diabetic rats [3]; oxycodone […], candesartan (0.5 mg/kg/day) STZ-diabetic rats, 9 wks post-STZ): 20%
- decrease in potency versus protocol controls (STZ-diabetic rats [3]; oxycodone, candesartan (0.5 mg/kg/day) STZ-diabetic rats, by 12 wks post-STZ): ~50%
- decrease in dose-normalised %MPE AUC versus protocol-control non-diabetic rats (STZ-diabetic rats [3]; oxycodone, low-dose candesartan (0.5 mg/kg/day) STZ-diabetic rats, 24 wks post-STZ): ~1.5 fold
- fraction of each dose O-demethylated to oxymorphone (CYP2D6): < 5%
- decrease in potency relative to non-diabetic control rats (STZ-diabetic rats [4]; s.c. oxycodone, STZ-diabetic rats over 24 wk study (Smith et al., 2001)): 4 fold

Compound: candesartan
- Effect on morphine's antinociceptive effects (s.c. morphine 6.1 mg/kg) (STZ-diabetic rats [5]): preserved morphine's antinociceptive effects; also recorded: morphine sensitivity was preserved
- Physical appearance and health after cessation of treatment [6]: apparent general decline in the physical appearance and health
- Mean (±SEM) paw withdrawal threshold (STZ-diabetic rats [7]; 24 wks post-STZ on oral candesartan 2.0 mg/kg/day, immediately prior to cessation): 11.9 (±0.2) g
- Development of tactile allodynia (Von Frey filaments) (STZ-diabetic rats [7]; oral candesartan 0.5 mg/kg/day once daily for 24 wks from STZ administration): only delayed but did not prevent the development of tactile allodynia
- Paw withdrawal latencies versus rats given high-dose candesartan (STZ-diabetic rats [7]; [15]): significantly lower
- Paw withdrawal thresholds versus untreated STZ-diabetic control rats (STZ-diabetic rats [7]; [15]): not significantly different
- Development of tactile allodynia (Von Frey filaments) (STZ-diabetic rats [7]; oral candesartan 2.0 mg/kg/day once daily for 24 wks from STZ administration): completely attenuated the development of tactile allodynia
- Mean paw withdrawal threshold versus non-diabetic control rodents (STZ-diabetic rats [7]; oral candesartan 2.0 mg/kg/day, 24 wks post-STZ): not significantly different
- Paw withdrawal thresholds after re-initiation of treatment (STZ-diabetic rats [7]; re-initiation of oral candesartan 2.0 mg/kg/day for six wks after six wks cessation): restored the paw withdrawal thresholds
- Mean (±SEM) paw withdrawal threshold (STZ-diabetic rats [7]; six wks after cessation of chronic oral candesartan 2.0 mg/kg/day): 6.0 (±0.3) g
- Mean (±SEM) paw withdrawal threshold (STZ-diabetic rats [7]; within two wks of re-initiation of oral candesartan 2.0 mg/kg/day): 11.3 ± 0.1 g
- Effect on loss of morphine potency (STZ-diabetic rats [3]; oral candesartan 0.5 mg/kg/day once daily, relative to control untreated STZ-diabetic rats): attenuated the loss of morphine potency
- Effect on temporal loss of morphine potency and efficacy (STZ-diabetic rats [3]; [16]): completely prevented the temporal loss of morphine potency and efficacy
- Effect on temporal loss of oxycodone potency and efficacy (STZ-diabetic rats [3]; [16]): completely prevented the temporal loss of oxycodone potency and efficacy
